Experimental data reported in US9212387B2, “Method for detection of genes targeted by microRNA” (National University Corporation Okayama University, priority 2010, dated 2015).
{Biotin} = biotin label; {P} = phosphate

Experiments:
[1] = test system: target candidate genes of miR-19a (mRNA in cell extract); assay: Pull down of target gene mRNAs of miR-19a with biotinylated miRNA, RT-PCR assay; format: binding, human
Source text: In this example, in the detection method for target genes of miRNA of Example 1, target genes were detected through the use of miR-19a as biotinylated miRNA. In accordance with the biotinylated miRNA of 1-1) of Example 1, biotinylated miR-19a in which the sense strand had its 5′ end and 3′ end modified by phosphorylation and biotin, respectively, and the antisense strand had only its 5′ end modified by phosphorylation was were synthesized (FASMAC Co., Ltd.). The synthesized biotinylated miR-19a (400 pmole) and biotin (B4501: Sigma, […]) as a negative control were subjected to the treatments of 1-2) and 1-3) of Example 1. A pull-down complex was obtained from the resulting complex by the same technique as in 1-4) through the use of streptavidin beads (Streptavidin Mutein Matrix: Roche), and washed five times with a wash solution containing 400 mM KCl in the same manner as in Example 5. After that, the precipitate was treated with a 5 mM biotin solution (containing 5 mM biotin and an RNase inhibitor in the wash solution containing 400 mM KCl) at 42° C. for 5 minutes, and centrifuged in the same manner, and the pull-down complex (biotinylated miR-19a) was liberated from the streptavidin beads. […]
In this example, target genes were detected through the use of miR-19a as biotinylated miRNA in the detection method for target genes of miRNA of Example 1. […]

[2] = test system: target gene mRNAs of miR-183 in HEK293 cell extract; assay: Pull down of target gene mRNAs of miR-183 with biotinylated miRNA from cell extract, RT-PCR assay; format: binding, human; settings: for target candidate genes of miR-183 (10 kinds) in pull-down complex: VIL2, PPP2CA, RREB1, BCL2L11, PDCD4, LATS2, RSU1, ING3, DNMT3A, BRMS1L, wash 400 mM KCl; for candidate genes whose mRNA was pulled down / RT-PCR bands: 14 kinds of target candidate genes of miR-183, HEK293 cell extract, streptavidin agarose beads
[3] = test system: target candidate genes of let-7b (mRNA in cell extract); assay: Pull down of target gene mRNAs of let-7b with biotinylated miRNA, RT-PCR assay; format: binding, human; settings: wash 400 mM KCl; for E2F6 and SOCS4 in pulled down mRNA: Example 8; for E2F2, TUSC2 and SRSF8 in pulled down mRNA: Example 9
Source text: In this example, in the detection method for target genes of miRNA of Example 1, target genes were detected through the use of let-7b as biotinylated miRNA. In accordance with the biotinylated miRNA of 1) of Example 1, biotinylated let-7b in which the sense strand had its 5′ end and 3′ end modified by phosphorylation and biotin, respectively, and the guide strand had only its 5′ end modified by phosphorylation and biotinylated miR-183 as a negative control were synthesized (FASMAC Co., Ltd.). A pull-down complex was obtained by the same technique as in Example 1 through the use of streptavidin beads (Streptavidin Mutein Matrix: Roche), and washed five times with a wash solution containing 400 mM KCl in the same manner as in Example 5. After that, RNA purification and cDNA synthesis were performed from the complex binding to the beads. The resulting cDNA was subjected to an RT-PCR assay with primers specific for the E2F6 and SOCS4-2 genes as target candidate genes of let-7b.
In this example, in the detection method for target genes of miRNA of Example 1, target genes were detected through the use of let-7b as biotinylated miRNA. In this example, the detection was performed by the same technique as in Example 8 except that biotinylated miR-29a was used as a negative control in place of biotinylated miR-183. Also in the case of the biotinylated miR-29a, one in which the sense strand had its 5′ end and 3′ end modified by phosphorylation and biotin, respectively, and the antisense strand had only its 5′ end modified by phosphorylation was produced (FASMAC Co., Ltd.). An RT-PCR assay was performed with primers specific for the PRDM2, E2F2, TUSC2, and SRSF8 genes as target candidate genes let-7b.

[4] = target: T1, AGO2 protein (Homo sapiens, UniProt Q9UKV8); assay: AGO2 protein in pull-down complex, Western blot; format: binding; settings: HEK293 cell extract; streptavidin agarose beads 1 hour
T1 construct: endogenous in cells; host or cells: HEK293 cell extract
T1 sequence (Q9UKV8 whole entry): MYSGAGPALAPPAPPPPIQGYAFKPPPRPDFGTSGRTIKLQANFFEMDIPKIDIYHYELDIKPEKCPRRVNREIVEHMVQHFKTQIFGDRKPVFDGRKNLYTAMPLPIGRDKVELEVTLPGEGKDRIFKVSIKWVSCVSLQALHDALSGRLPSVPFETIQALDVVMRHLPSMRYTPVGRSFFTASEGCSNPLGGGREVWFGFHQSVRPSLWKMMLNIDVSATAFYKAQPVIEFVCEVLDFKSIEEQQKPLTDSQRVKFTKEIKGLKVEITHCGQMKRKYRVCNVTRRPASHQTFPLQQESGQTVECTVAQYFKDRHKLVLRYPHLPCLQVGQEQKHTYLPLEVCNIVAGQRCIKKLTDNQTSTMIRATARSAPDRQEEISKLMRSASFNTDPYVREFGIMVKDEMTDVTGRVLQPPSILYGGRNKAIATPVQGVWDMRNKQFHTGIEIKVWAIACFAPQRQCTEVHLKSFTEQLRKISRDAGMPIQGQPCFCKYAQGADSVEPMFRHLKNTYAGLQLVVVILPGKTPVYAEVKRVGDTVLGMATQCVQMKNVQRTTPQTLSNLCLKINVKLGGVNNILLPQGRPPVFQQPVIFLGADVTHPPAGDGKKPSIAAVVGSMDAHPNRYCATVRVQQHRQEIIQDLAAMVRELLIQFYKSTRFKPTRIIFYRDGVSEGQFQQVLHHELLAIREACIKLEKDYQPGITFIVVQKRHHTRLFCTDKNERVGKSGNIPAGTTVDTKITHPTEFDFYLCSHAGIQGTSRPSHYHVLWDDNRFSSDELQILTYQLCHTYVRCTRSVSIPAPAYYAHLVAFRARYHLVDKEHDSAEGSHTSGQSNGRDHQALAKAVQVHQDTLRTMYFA
Method: Biotinylated miR-183 was produced by the same technique as that for the biotinylated miRNA of 1-1) of Example 1, and a cell extract of HEK293 cells was produced by the same technique as that for the cell extract of 1-2) of Example 1. Five tubes in each of which biotinylated double-stranded miR-183 ([…]) was added to 500 μl of the cell extract were produced, and were each subjected to a reaction at 4° C. for 30 minutes, and then at 30° C. for 60 minutes to provide a solution containing a biotinylated miRNA-target gene mRNA complex. To the solution containing the complex were added streptavidin agarose beads (Streptavidin Mutein Matrix, No. 03 708 152 001: Roche), and each tube was treated at 4° C. for 0 minutes, 2 minutes, 12 minutes, 24 minutes, or 1 hour. […]
The presence or absence of the AGO2 protein in the pull-down complex of Example 2 was confirmed. […] By the same technique as in Experimental Example 1-2, the sample was electrophoresed with 8% SDS-polyacrylamide gel, proteins were then blotted onto a PVDF membrane and subjected to a reaction through the use of an anti-AGO2 antibody (Anti Human AGO2 monoclonal antibody; Wako Pure Chemical Industries, Ltd., No. 016-20861), an anti-mouse antibody, and a Vecstatin ABC-AP kit (Vector Laboratories), and a fluorescence image was acquired with an image analyzer (LAS-1000; FUJIFILM). […]

**Q.** For “biotinylated miR-19a: Sense SEQ ID NO: 7, 5′-phosphorylated, 3′-biotinylated; antisense SEQ ID NO: 8 (sense UGUGCAAAUCUAUGCAAAACUGA; antisense AGUUUUGCAUAGAUUUGCAUAAG; sense: RNA, 5' {P}, 3' {Biotin}, backbone not given here; antisense: RNA, 5' {P}, backbone not given here)”, which “target candidate genes (9 genes) of miR-19a in pulled down mRNA” value ([1]; JAZF1, TNF, SMAD4, HIP1, HIC1, LRP12, TNFRSF12A, TUSC2, SIVA1, Example 11) is on record?
**A.** contained

**Q.** And the “target candidate genes (7 kinds) of miR-19a in 5 mM biotin extract or on remaining beads” value ([1]; SOX4, INHBB, TP531NP1, PTP4A1, TNFAIP3, HIC1, CNKSR2, Example 10)?
**A.** present

**Q.** “natural type miRNA: Original mature miRNA type: sense SEQ ID NO: 1, antisense SEQ ID NO: 9 (sense UAUGGCACUGGUAGAAUUCACU; antisense GUGAAUUACCGAAGGGCCAUAA; sense: RNA, 5' {P}, 3' {Biotin}, backbone not given here; antisense: RNA, 5' {P}, backbone not given here)” was tested. Which “target candidate genes of miR-183 (10 kinds) in pull-down complex” value [2] did it give?
**A.** contained

**Q.** Which results are given for “biotinylated let-7b: Sense SEQ ID NO: 3, 5′-phosphorylated, 3′-biotinylated; antisense SEQ ID NO: 4”?
**A.** E2F6 and SOCS4 in pulled down mRNA [3]: contained; E2F2, TUSC2 and SRSF8 in pulled down mRNA [3]: contained; candidate genes whose mRNA was pulled down / RT-PCR bands [2]: no band for any of the genes was detected

**Q.** How did the “E2F2, TUSC2 and SRSF8 in pulled down mRNA” value [3] turn out when “biotinylated miR-29a: Sense SEQ ID NO: 5, 5′-phosphorylated, 3′-biotinylated; antisense SEQ ID NO: 6; negative control (sense UAGCACCAUCUGAAAUCGGUUA; antisense ACCGAUUUCAGAUGGUGCCAAG; sense: RNA, 5' {P}, 3' {Biotin}, backbone not given here; antisense: RNA, 5' {P}, backbone not given here)” was run?
**A.** not contained

**Q.** What does the source list for “biotinylated miR-183: Sense SEQ ID NO: 1, 5′-phosphorylated, 3′-biotinylated; antisense SEQ ID NO: 2 with a 1-base mismatch (sense UAUGGCACUGGUAGAAUUCACU; antisense UGAAUUCUACCAGUGCCACAAG; sense: RNA, 5' {P}, 3' {Biotin}, backbone not given here; antisense: RNA, 5' {P}, backbone not given here)”?
**A.** AGO2 protein (about 95 kDa) in pull-down complex [4]: detected; E2F6 and SOCS4 in pulled down mRNA [3]: not contained; candidate genes whose mRNA was pulled down / RT-PCR bands [2]: 7; target candidate genes of miR-183 (10 kinds) in pull-down complex [2]: contained
